According to patent US20260083722A1, “BIFUNCTIONAL DEGRADERS COMPRISING ELECTROPHILIC PROTACS THAT ENGAGE DCAF1 AND PHARMACEUTICAL COMPOSITIONS COMPRISING THE SAME” (THE SCRIPPS RESEARCH INSTITUTE, priority 2022, published 2026):

Target: T1, recombinant DCAF1-WT (a.a.'s 1046-1396) (Homo sapiens, UniProt Q9Y4B6)
T1 construct: form of DCAF1 containing the WD40 domain (amino acids (a.a.'s) 1046-1396); made in house
Assay: gel-ABPP with recombinant purified DCAF1-WT doped into HEK293T cell proteome
Type: binding
Conditions: for inhibition of MY-11B probe reactivity with recombinant DCAF1: 2 h, then MY-11B 25 μM 1 h, YT41S and YT47S at single concentration 100 μM; for plateau of blockade of MY-11B labeling: at 20 µM test concentrations; for gel-shift of recombinant DCAF1 by Coomassie blue staining: in the presence of compound
Description: FIG. 2 that azetidine acrylamides stereo- and site-selectively engage recombinant DCAF1_C1113. (A) Domain map of DCAF1 with the region used for recombinant protein studies marked in a bracket (a.a.'s 1046-1396) and C1113 highlighted in red. (B) Crystal structure of a DCAF1-Vpx complex (pdb: 5AJA). DCAF1 (a.a.'s 1046-1396) is shown in cyan, Vpx is shown in yellow, and C1113, which is located at the DCAF1-Vpx interface is shown in red. (C) Structures of alkyne-modified azetidine acrylamides MY-11A (5) and MY-11B (6). (D) Gel-ABPP showing the concentration-dependent reactivity of MY-11A and MY-11B (1 h) reactivity with recombinant, purified DCAF1-WT or the DCAF1-C1113A mutant (0.06 μg/μL of DCAF1 protein per sample) doped into HEK293T cell proteome (1 μg/μL). MY-11A/B labeling of proteins was visualized by CuAAC conjugation to an azide-rhodamine tag followed by SDS-PAGE and in-gel fluorescence scanning. Results are from a single experiment representative of two independent experiments. (E) Gel-ABPP showing the concentration-dependent effects of MY-1A and MY-1B on MY-11B reactivity with DCAF1-WT. Samples were treated with MY-1A/B for 2 h, followed by MY-11B (25 μM, 1 h) and analyzed as described in (D). Left, quantification of data presented as mean values±SEM from two independent experiments. Right, representative gel-ABPP results. (D, E) Lower images are Coomassie blue-stained gels corresponding to ABPP gels shown in upper images.
(A) Structures of candidate electrophilic PROTACs YT41R (7), YT41S (8), YT47R (9), and YT47S (10). (B) Gel-ABPP showing the concentration-dependent effects of YT41R and YT47R on MY-11B reactivity with DCAF1-WT protein (0.06 μg/μL of DCAF1 protein per sample) doped into HEK293T cell proteome (1 μg/μL). Also shown are the effects of YT41S and YT47S tested at a single concentration (100 μM). Samples were treated with heterobifunctional compounds for 2 h, followed by MY-11B (25 μM, 1 h) and analyzed as described in FIG. 2D. Left, representative gel-ABPP results. Lower image is Coomassie blue-stained gel corresponding to ABPP gel shown in upper image. Right, quantification of data presented as mean values±SEM from two independent experiments.
DCAF1 is a multi-domain substrate receptor for CRL4 ligases (FIG. 2A) that has diverse physiological and disease functions, including being co-opted by the HIV-2 virus to promote degradation of the antiviral host protein SAMHD1^27-28. […] We verified the stereo- and site-selective engagement of DCAF1_C1113 by azetidine acrylamides using alkynylated analogues of MY-1A and MY-1B (MY-11A (5) and MY-11B (6), respectively; FIG. 2C). For these experiments, we doped into HEK293T cell lysates a recombinantly expressed and purified form of DCAF1 containing the WD40 domain (amino acids (a.a.'s) 1046-1396), in complex with the CRL4 adaptor protein DDB1^31, and exposed these samples to varying concentrations of MY-11A or MY-11B. After 1 h, we assessed MY-11A and MY-11B engagement of DCAF1 by copper-catalyzed azide-alkyne cycloaddition (CuAAC)^32 with an azide-rhodamine reporter tag followed by SDS-PAGE and in-gel fluorescence scanning^33. […] We used gel-ABPP to quantify an in vitro target engagement value (TE50) of approximately 25 μM (95% C.I.=13-38 μM) for MY-1B labeling of DCAF1 (FIG. 2E, left).

T1 sequence (Q9Y4B6 1046-1396): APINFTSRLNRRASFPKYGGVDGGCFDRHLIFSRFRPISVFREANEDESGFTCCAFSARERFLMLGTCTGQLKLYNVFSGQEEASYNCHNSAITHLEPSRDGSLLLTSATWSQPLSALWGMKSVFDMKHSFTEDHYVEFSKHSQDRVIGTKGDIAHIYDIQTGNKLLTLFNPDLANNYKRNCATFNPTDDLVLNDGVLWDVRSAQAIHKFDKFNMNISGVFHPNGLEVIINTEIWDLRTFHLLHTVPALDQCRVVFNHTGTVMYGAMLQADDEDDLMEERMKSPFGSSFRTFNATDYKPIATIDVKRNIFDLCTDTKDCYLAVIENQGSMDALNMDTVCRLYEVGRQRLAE
T1 sequence (Q16531 whole entry partner, the tested form may be a part): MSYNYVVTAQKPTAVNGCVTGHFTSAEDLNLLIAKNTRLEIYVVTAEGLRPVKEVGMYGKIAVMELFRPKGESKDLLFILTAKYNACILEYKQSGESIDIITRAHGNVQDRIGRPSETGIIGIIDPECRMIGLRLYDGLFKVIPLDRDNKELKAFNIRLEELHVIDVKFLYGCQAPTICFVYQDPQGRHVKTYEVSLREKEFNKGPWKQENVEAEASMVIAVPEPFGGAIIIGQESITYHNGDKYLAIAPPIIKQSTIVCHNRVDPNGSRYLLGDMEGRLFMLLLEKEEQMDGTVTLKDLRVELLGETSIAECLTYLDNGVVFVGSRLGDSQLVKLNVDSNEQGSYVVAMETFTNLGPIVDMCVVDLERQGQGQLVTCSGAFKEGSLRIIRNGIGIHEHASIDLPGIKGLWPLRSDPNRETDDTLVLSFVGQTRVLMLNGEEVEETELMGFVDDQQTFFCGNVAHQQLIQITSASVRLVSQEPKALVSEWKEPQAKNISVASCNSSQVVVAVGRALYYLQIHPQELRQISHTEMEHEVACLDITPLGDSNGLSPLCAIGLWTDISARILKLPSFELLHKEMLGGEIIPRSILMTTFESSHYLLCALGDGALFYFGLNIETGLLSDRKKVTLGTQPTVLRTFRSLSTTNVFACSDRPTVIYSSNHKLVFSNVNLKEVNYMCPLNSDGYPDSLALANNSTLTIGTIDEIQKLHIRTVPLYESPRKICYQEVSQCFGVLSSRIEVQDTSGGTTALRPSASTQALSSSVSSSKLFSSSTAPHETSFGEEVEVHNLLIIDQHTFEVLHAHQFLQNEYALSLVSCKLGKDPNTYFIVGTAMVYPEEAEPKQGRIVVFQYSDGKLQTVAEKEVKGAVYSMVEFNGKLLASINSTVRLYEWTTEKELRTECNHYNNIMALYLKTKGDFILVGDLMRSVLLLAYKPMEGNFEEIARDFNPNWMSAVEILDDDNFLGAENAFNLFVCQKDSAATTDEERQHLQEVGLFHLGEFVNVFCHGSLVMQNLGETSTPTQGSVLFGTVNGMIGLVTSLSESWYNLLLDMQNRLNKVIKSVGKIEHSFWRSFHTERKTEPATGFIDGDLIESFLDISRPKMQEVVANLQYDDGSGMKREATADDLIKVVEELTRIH

Compound | inhibition of MY-11B probe reactivity with recombinant DCAF1 | plateau of blockade of MY-11B labeling | gel-shift of recombinant DCAF1 by Coomassie blue staining
C=CC(=O)C1C[C@H](c2ccc(C(=O)NCCOCCOCCNC(=O)COc3cccc([C@@H](CCc4ccc(OC)c(OC)c4)OC(=O)[C@@H]4CCCCN4C(=O)C(=O)C(C)(C)CC)c3)cc2)[C@@H]1C(=O)Nc1cccc2cccnc12 (stereo partly drawn) [YT41R] | concentration-dependent inhibition | ~75% | apparent gel-shift
C=CC(=O)N1C[C@H](c2ccc(C(=O)NCCOCCOCCOCCNC(=O)COc3cccc([C@@H](CCc4ccc(OC)c(OC)c4)OC(=O)[C@@H]4CCCCN4C(=O)C(=O)C(C)(C)CC)c3)cc2)[C@@H]1C(=O)Nc1cccc2cccnc12 [YT47R] | concentration-dependent inhibition | ~75% | apparent gel-shift
